Experimental findings from patent US8852587B2 (priority 2008, dated 2014) are described below.

The experiment has as its target PrP^Sc (Mus musculus, UniProt P04925). It counts as binding.
The mark [1] stands for this setting: affinity for PrPSc pulldown compared to peptide LH3 (CDR3H).
Setting [2] is: pull-down, compared to peptide LH3.
[3] abbreviates: pull-down, compared to peptide LH3 (CDR3H).

Where two headings read alike, the source gives them in different places.

Sequence of PrP^Sc (P04925 23-230 limits assumed): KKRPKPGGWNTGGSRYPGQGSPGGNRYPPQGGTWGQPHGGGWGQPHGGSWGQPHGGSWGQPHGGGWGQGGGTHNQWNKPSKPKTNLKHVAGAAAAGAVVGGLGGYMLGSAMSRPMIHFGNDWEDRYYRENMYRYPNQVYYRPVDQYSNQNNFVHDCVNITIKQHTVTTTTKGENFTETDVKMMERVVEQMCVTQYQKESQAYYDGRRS

Consider H-YFCARWNWERDAMDYWG-OH [CDR3H], for which the Affinity was determined as 0 and the Specificity result is reported as “PrP^Sc”. As to YFAARWNWERDAMDYWG [LH3A3], the Specificity result is “PrP^Sc”. On to YFCAAWNWERDAMDYWG [LH3A5], for which the Specificity entry is “PrP^Sc”. As for YFCADWNWERDAMDYWG [LH3D5], the Specificity result is given as “PrP^Sc” and the “change of affinity for PrP^Sc” value is “slightly decreases affinity for PrP^Sc”. Consider YFCARANWERDAMDYWG [LH3A6], for which the Specificity result was “PrP^Sc”.

For the substance YFCARWAWERDAMDYWG [LH3A7], the Affinity entry under setting [1] was “(+)”. For the same substance, the “change of affinity for PrP^Sc” value under setting [2] is “slightly increase affinity for PrP^Sc”. For the same substance, the Specificity result under setting [3] is “PrP^Sc”. For YFCARWNAERDAMDYWG [LH3A8], the Specificity result was “PrP^Sc”. For YFCARWNWARDAMDYWG [LH3A9], the Specificity entry is reported as “PrP^Sc”. On to YFCARWNWEADAMDYWG [LH3A10], for which the “Specificity” value under setting [2] is recorded as “binds to PrP^C” and the Specificity result under setting [3] is recorded as “PrP^C”. As for YFCARWNWEDDAMDYWG [LH3D10], the Affinity result was “(+)”, the Specificity entry is listed as “PrP^Sc” and the “change of affinity for PrP^Sc” value was “slightly increase affinity for PrP^Sc”. Turning to YFCARWNWERAAMDYWG [LH3A11], the Specificity entry was “PrP^Sc”. In the case of YFCARWNWERDAADYWG [LH3A13], under setting [1], the Affinity result was “+”. In addition, the “change of affinity for PrP^Sc” value under setting [2] was “increase affinity for PrP^Sc”. Besides, under setting [3], the Specificity entry is given as “PrP^Sc”. Take YFCARWNWERDAMAYWG [LH3A14]: the Affinity entry under setting [1] is listed as “(+)”. For the same substance, the “change of affinity for PrP^Sc” value under setting [2] is listed as “slightly increase affinity for PrP^Sc”. In addition, the Specificity result under setting [3] is reported as “PrP^Sc”. For the substance YFCARWNWERDAMDAWG [LH3A15], the Specificity result is listed as “PrP^Sc”. On to YFCARWNWERDAMRYWG [LH3R14], for which the Specificity entry is given as “PrP^Sc”.

With YFCARWNWERRAMDYWG [LH3R11], the Affinity result under setting [1] was “+”. Also, the “change of affinity for PrP^Sc” value under setting [2] is listed as “increase affinity for PrP^Sc”. For the same substance, the Specificity entry under setting [3] was “PrP^Sc”. In the case of YFCARWNWRRDAMDYWG [LH3R9], the Affinity entry under setting [1] was “(+)”. Further, under setting [2], the “change of affinity for PrP^Sc” value is “slightly increase affinity for PrP^Sc”. The Specificity entry under setting [3] is on record as “PrP^Sc”.
